Consider nine molecules from ChEMBL document CHEMBL1201862, “PubChem BioAssay data set” (2004).

Molecules are shown by their SMILES. Calls of active or inactive are those of the source. Bounds are passed on as bounds.

In assay [1] the target is T1, Voltage-gated N-type calcium channel alpha-1B subunit/Amyloid beta A4 precursor protein-binding family A member 1 (Homo sapiens, UniProt Q00975+Q02410). In kind it is protein assay.
Assay [2] deals with T1, Voltage-gated N-type calcium channel alpha-1B subunit/Amyloid beta A4 precursor protein-binding family A member 1. In kind it is protein assay. The source holds these as a separate data set.
Assay [3] deals with T2, 1-acylglycerol-3-phosphate O-acyltransferase ABHD5/Perilipin-5 (Homo sapiens, UniProt Q00G26+Q8WTS1).
T2 sequence (Q00G26 whole entry): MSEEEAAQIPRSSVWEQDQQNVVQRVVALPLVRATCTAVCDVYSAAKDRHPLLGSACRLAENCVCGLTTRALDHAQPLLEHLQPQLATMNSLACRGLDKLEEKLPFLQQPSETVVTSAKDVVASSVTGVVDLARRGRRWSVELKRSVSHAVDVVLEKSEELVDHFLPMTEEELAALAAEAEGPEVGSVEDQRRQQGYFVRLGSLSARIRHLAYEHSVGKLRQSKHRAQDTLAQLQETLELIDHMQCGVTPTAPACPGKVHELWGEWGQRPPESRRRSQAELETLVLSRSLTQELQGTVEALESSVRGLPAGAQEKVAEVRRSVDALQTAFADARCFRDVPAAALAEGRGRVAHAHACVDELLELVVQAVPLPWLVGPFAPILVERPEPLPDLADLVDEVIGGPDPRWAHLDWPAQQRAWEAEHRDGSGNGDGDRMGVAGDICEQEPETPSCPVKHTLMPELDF
T2 sequence (Q8WTS1 whole entry): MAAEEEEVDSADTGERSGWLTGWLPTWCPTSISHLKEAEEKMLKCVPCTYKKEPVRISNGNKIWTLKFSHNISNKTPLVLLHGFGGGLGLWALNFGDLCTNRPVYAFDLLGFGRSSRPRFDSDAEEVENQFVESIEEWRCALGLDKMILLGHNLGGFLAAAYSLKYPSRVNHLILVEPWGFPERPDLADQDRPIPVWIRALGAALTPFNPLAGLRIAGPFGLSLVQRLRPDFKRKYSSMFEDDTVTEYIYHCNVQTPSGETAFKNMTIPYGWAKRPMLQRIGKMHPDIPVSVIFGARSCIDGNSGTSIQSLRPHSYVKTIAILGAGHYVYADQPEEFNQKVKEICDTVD
The assay can be described thus: Luminescence-based biochemical high throughput dose response assay for inhibitors of the interaction of the lipase co-activator protein, abhydrolase domain containing 5 (ABHD5) with perilipin-5 (MLDP; PLIN5) (2K validation set). [Related pubchem assays (depositor defined):AID493035, AID493241].

Assay [4] addresses T3, Perilipin-1/ABHD5 (Homo sapiens, UniProt O60240+Q8WTS1).
T3 sequence (Q8WTS1 whole entry): T2 sequence (Q8WTS1 whole entry)
T3 sequence (O60240 whole entry): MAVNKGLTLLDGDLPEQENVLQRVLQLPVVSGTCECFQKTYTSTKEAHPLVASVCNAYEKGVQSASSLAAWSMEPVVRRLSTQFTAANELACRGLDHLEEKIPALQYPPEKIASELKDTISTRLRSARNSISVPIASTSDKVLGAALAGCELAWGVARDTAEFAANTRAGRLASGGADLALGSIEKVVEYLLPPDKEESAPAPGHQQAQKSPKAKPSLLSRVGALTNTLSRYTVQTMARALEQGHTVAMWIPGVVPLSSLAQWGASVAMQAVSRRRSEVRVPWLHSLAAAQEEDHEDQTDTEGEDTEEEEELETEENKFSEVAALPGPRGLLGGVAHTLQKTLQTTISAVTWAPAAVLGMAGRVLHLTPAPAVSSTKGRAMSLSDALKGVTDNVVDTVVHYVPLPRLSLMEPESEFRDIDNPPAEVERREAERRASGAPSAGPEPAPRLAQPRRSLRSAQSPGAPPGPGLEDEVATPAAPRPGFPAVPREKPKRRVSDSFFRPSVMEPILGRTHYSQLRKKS
Nature of the assay: Luminescence-based biochemical high throughput dose response assay for inhibitors of the interaction of the lipase co-activator protein, abhydrolase domain containing 5 (ABHD5) with perilipin-1 (PLIN1) (2K validation set). [Related pubchem assays (depositor defined):AID493027, AID493057].

Assay [5] has as its target T4, Endoribonuclease toxin MazF (Escherichia coli K-12, UniProt P0AE70).
T4 sequence (P0AE70 whole entry): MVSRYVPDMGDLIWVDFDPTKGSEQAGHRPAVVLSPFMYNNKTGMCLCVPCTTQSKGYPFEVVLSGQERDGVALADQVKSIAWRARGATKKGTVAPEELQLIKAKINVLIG
The assay can be described thus: MazF toxin RNase activators, dose response, biochemical, fluorescence, single-stranded RNA substrate, uHTS hits (AID 588481). In kind it is functional.

The target in assay [6] is Troponin, cardiac muscle (Homo sapiens, UniProt P19429+P45379+P63316). Nature of the assay: Fluorescence-based biochemical high throughput dose response assay for activators of the calcium sensitivity of cardiac Regulated Thin Filaments (RTF). [Related pubchem assays (depositor defined):AID493008, AID493018, AID504382, AID504383]. The format is protein-complex assay.
Assay [7] concerns the target T5, Corticotropin-releasing factor receptor 2/Corticotropin-releasing factor-binding protein (Homo sapiens, UniProt P24387+Q13324).
T5 sequence (Q13324 whole entry): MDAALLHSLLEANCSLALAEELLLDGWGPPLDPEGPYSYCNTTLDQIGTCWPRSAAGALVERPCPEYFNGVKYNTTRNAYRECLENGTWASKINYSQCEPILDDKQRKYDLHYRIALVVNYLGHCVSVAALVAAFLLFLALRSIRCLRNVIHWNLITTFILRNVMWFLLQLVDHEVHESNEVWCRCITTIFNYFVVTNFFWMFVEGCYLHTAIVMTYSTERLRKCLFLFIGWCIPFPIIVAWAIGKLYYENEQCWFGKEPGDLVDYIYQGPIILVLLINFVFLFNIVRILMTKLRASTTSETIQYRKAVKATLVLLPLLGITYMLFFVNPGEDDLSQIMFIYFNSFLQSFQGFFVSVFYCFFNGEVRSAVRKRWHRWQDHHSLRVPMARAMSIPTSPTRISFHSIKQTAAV
T5 sequence (P24387 whole entry): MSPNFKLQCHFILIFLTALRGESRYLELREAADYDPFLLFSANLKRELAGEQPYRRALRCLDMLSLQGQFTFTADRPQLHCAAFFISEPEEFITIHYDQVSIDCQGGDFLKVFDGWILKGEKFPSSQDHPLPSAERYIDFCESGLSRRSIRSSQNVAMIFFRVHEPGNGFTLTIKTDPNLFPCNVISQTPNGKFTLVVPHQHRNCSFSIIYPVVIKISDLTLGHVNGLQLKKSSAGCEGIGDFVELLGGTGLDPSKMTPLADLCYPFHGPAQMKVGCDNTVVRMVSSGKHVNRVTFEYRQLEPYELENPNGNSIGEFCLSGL
The assay can be described thus: activators of CRF receptor 2 with binding protein – uHTS hits, confirmation (AID 602473). The note with it: read-out: EC50_Mean. In kind it is functional.

For assay [8], the target named is T4, Endoribonuclease toxin MazF. The assay can be described thus: fluorescent RNA oligo signal without MazF, dose response, counter-screen for MazEF activator project, biochemical, fluorescence, single-stranded RNase substrate (AID 588502). In kind it is functional.
In assay [9] the target is T6, Hexokinase HKDC1 (Homo sapiens, UniProt Q2TB90).
T6 sequence (Q2TB90 whole entry): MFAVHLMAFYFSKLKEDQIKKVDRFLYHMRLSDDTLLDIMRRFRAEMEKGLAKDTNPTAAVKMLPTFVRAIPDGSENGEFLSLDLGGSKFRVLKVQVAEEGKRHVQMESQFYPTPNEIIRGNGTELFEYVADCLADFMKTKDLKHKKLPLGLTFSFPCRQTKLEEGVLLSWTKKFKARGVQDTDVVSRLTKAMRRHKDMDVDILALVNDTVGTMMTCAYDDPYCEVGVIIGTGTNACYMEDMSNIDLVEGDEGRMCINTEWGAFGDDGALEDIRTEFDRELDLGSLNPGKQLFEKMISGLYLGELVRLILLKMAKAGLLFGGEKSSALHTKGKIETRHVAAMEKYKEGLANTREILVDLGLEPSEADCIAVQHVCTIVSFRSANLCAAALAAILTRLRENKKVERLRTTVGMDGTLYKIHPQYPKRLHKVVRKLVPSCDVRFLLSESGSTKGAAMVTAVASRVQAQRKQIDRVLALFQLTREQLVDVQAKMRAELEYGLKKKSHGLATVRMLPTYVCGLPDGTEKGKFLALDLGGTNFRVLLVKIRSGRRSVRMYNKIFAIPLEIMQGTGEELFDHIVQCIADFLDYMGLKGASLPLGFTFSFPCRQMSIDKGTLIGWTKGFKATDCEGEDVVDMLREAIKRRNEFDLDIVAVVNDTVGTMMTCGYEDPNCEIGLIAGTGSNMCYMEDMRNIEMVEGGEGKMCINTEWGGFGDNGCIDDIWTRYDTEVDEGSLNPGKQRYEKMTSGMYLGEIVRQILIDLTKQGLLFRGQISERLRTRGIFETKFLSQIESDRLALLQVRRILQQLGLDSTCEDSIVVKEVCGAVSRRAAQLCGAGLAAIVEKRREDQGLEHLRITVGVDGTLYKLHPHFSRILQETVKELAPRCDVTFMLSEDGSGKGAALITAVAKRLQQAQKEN
Nature of the assay: HKDC1 hexokinase activators, dose response, biochemical, W721R variant (AID 504730). In kind it is functional.

In assay [10] the test system is Vero. The assay can be described thus: cells. The format is functional. The note with it: Chlorocebus sabaeus.
The target in assay [11] is T7, Hexokinase-1 (Homo sapiens, UniProt P19367).
T7 sequence (P19367 whole entry): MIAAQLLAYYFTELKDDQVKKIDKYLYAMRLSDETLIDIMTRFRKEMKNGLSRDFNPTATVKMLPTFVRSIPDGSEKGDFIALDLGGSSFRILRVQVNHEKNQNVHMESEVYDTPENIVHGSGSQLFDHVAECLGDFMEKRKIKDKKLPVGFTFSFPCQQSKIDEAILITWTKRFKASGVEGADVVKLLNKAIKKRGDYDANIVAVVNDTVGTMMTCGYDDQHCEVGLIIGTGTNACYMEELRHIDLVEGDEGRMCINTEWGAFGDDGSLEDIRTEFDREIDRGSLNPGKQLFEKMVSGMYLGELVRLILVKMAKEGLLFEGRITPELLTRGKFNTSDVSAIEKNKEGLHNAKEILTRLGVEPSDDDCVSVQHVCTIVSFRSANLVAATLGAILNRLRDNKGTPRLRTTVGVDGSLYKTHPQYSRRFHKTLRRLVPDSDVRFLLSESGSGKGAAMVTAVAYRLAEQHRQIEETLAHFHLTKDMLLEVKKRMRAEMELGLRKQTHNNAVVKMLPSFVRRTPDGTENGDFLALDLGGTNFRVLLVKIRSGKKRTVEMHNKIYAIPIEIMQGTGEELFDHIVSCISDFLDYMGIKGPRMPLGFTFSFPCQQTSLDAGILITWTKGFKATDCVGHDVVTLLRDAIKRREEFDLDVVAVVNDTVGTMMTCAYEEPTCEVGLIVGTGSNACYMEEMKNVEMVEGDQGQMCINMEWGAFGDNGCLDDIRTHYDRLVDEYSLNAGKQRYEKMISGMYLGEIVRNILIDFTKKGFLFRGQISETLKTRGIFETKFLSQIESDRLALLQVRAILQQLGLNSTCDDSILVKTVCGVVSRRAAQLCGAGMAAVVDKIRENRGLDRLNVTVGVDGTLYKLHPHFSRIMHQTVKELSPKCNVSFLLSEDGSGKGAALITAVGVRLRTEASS
Nature of the assay: hexokinase 1 activators, dose response, selectivity assay for HKDC1 activator project, biochemical (AID 504762). The format is functional.

T1 sequence (Q00975 whole entry): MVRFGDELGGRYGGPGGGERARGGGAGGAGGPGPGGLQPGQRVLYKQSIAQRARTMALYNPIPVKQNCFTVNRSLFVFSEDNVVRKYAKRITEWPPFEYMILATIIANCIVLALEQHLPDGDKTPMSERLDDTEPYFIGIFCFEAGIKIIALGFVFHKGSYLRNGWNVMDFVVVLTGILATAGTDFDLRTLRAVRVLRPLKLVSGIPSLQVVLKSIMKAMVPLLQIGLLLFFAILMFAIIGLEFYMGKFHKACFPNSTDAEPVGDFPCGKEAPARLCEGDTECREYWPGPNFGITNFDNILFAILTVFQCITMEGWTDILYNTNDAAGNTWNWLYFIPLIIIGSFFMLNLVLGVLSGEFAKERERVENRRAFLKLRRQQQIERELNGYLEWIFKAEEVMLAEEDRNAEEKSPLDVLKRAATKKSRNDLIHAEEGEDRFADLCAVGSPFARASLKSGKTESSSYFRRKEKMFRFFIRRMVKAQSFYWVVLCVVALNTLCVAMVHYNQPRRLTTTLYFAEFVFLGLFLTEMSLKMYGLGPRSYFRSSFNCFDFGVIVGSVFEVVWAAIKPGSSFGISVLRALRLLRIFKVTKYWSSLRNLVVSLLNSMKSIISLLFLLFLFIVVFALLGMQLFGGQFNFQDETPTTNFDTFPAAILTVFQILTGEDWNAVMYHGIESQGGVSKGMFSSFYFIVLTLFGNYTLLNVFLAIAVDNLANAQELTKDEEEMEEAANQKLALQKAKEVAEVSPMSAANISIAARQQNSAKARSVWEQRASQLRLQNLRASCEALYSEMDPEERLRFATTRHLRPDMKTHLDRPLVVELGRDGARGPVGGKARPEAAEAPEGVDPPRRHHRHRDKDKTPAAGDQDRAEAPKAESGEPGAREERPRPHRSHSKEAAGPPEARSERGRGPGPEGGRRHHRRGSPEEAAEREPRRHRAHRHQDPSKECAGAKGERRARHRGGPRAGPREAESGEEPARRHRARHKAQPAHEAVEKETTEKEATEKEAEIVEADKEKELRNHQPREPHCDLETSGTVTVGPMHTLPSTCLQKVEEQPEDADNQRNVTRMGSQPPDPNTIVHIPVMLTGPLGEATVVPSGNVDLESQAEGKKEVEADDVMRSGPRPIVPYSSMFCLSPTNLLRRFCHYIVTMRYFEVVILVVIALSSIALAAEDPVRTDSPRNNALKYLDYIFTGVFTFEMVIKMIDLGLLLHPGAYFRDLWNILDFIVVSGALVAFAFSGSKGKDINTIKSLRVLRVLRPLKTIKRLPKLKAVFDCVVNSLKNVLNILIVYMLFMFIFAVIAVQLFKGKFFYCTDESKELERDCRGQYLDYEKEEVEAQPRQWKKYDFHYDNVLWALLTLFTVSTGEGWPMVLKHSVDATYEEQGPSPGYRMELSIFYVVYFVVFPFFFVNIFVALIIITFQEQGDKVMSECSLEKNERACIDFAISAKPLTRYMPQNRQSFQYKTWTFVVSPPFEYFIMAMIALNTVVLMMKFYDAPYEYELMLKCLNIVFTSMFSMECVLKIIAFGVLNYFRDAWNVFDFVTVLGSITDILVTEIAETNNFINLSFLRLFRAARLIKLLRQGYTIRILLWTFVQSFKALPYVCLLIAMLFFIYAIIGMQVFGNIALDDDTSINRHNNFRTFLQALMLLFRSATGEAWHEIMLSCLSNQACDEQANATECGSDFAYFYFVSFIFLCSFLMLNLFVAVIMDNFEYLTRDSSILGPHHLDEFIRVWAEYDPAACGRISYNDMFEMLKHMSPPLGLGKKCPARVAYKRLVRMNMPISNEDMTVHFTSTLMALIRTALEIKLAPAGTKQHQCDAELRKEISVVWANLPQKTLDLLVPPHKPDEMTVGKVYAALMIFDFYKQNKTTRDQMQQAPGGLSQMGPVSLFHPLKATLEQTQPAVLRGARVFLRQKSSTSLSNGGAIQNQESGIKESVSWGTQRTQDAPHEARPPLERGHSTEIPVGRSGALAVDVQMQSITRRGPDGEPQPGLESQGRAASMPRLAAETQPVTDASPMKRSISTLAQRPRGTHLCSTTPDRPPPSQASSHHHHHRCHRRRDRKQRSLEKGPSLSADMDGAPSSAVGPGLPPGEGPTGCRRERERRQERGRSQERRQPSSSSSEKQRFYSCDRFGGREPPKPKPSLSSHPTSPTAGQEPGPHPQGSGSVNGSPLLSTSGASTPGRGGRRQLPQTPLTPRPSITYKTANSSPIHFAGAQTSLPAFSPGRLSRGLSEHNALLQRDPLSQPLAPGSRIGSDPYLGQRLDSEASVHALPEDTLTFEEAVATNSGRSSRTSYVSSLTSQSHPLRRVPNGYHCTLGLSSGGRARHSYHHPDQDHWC
T1 sequence (Q02410 whole entry): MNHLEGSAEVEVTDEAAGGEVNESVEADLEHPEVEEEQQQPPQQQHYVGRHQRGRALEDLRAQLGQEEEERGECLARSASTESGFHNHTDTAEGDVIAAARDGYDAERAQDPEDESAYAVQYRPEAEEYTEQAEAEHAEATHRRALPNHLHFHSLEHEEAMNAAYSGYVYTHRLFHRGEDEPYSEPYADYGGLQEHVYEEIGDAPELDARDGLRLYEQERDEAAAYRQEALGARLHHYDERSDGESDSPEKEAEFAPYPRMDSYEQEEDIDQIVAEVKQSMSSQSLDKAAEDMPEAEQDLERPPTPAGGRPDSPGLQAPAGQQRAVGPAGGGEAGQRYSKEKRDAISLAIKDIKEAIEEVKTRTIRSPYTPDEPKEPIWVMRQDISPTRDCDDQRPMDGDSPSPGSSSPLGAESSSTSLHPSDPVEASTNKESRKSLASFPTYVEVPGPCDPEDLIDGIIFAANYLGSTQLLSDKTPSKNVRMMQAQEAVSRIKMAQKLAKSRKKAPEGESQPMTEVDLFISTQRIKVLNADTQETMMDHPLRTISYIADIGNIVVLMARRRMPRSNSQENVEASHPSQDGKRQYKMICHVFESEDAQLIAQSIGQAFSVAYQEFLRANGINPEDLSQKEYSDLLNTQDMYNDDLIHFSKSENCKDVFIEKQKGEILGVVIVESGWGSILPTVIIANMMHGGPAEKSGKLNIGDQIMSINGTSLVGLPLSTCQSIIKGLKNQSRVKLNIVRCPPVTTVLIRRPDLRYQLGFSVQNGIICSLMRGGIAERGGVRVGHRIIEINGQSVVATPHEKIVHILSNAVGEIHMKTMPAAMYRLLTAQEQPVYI

`COc1ccc(N2C(=O)NC(=O)/C(=C\c3c[nH]c4ccccc34)C2=O)cc1`: the IC50 was > 50 µM (inactive) in [1] and 23.7 µM (active) in assay [2].
In the case of `COc1ccc(/C=C2\CC/C(=C\c3ccc(OC)c(OC)c3)C2=O)cc1OC`, the IC50 in assay [3] is 5.24 µM (active); in assay [4], 5.6 µM (active).
Take `COc1ccc(OC)c(/C=C2\N=C(c3ccccc3)OC2=O)c1`: the EC50 is > 99 µM (inactive) in [5], 2.58 µM (active) in assay [6], 2.29 µM (active) in [7] and 39.1 µM (inactive) in [8].
Consider `Cn1c(SSc2ccc(-c3cccnc3)n2C)ccc1-c1cccnc1`, for which the values for the EC50 in assay [9] and in [11] were 14.8 µM (active) and 14.2 µM (active), respectively. For the same molecule, in assay [10], the CC50 was 16.8 µM (active).
Regarding `CSCCC(NC(=O)OC(C)(C)C)C(=O)Oc1ccc2c(=O)c(-c3ccc4c(c3)OCCO4)coc2c1` (centres undefined), the IC50 in assay [3] was 3.94 µM (active); in assay [4], 2.99 µM (active).
Turning to `CCOC(=O)c1c(C)[nH]c(C2=NN=C(Nc3ccccc3)SC2)c1C`, the EC50 was 24.3 µM (inactive) in assay [9] and 18.2 µM (active) in assay [11].
Consider `COc1ccc2[nH]c(-c3ccccn3)nc2c1`, for which the EC50 in assay [6] was > 71.5 µM (inactive).
The same measure, in the same setting: for `COc1cc(N2CCCC2)c(OC)cc1/C=C1/NC(=S)NC1=O` the value was 1.14 µM (active).
`O=C(CCN1C(=O)/C(=C/c2ccccc2Cl)SC1=S)NC1CCS(=O)(=O)C1` (centres undefined): the IC50 was > 50 µM (inactive) in assay [1] and 5.22 µM (active) in assay [2].
